Patent publication US12655437B2, “Compositions and methods for modulating the gastrointestinal tract using bile salt hydrolases” (North Carolina State University, priority 2019, dated 2026)

Tests used:
C. difficile [1] = test: Growth of C. difficile anaerobically in BHIS medium supplemented with bile acids and purified BSH; format: cell-based, Clostridioides difficile; settings: BHIS media supplemented with the bile acid alone
Method: FIGS. 22A-22C: BSH specificity can leveraged to inhibit Clostridioides difficile in a conjugated bile acid substrate-dependent manner. (A) Recombinantly expressed and purified L. johnsonii BSHs were assayed for deconjugation with GCDCA and TCDCA. Specific activities for each BSH were determined by quantifying the rate of amino acid release by Ninhydrin assay. (B, C) Growth of C. difficile anaerobically in BHIS medium supplemented with GCDCA, TCDCA, or CDCA in combination with purified LjoBSHa or LjoBSHc.
As shown in FIGS. 9-11, recombinant BHSs were overexpressed and purified to homogeneity, and experiments were conducted to evaluate their activity. Two recombinant BSH enzymes were used for this assay. […] TCDCA was chosen as a conjugated bile acid to be used in the growth assays due to C. difficile's sensitivity to the CDCA that is released from BSH activity. […] A high dosage of LjoBSHa is needed to overcome its catalytic deficiency (FIG. 9).
TCDCA was chosen as a conjugated bile acid to be used in this growth (FIGS. 22B-22C) assay due to C. difficile's sensitivity to the CDCA that is released from BSH activity. […] A high dosage of LjoBSHa is needed to overcome its catalytic deficiency.

C. difficile [2] = settings: cited from earlier work
L. gasseri ΔbshAB = test: Growth of L. gasseri bsh mutants in MRS media supplemented with bile acids; format: cell-based, Lactobacillus gasseri
Method: (§1) Error bars represent standard deviation (s.d.) from n=4 independent experiments. Dashed lined denotes the approximate starting CFUs/mL at 0 h. Exogenous recombinant LaBSHa and LaBSHb (LaBSHab) or LgBSHa and LgBSHb (LgBSHab) were supplemented to cultures in equimolar amounts to (A) L. acidophilus ΔbshAB or (B) L. gasseri ΔbshAB growths to functionally complement ΔbshAB strains.
(§2) The L. acidophilus strains with deletion in bshA, bshB, and bshAB were tested in plate assays and growth curves were determined. The ΔbshA, ΔbshB, and ΔbshAB L. acidophilus and L. gasseri strains were grown in the presence of conjugated bile acids to test BSH contributions to bile acid detoxification. FIG. 12 provides growth curves of L. acidophilus mutants grown in a variety of bile acid concentrations.

L. acidophilus ΔbshAB = test: Growth of L. acidophilus bsh mutants in MRS media supplemented with bile acids; format: cell-based, Lactobacillus acidophilus
Method: FIG. 12: L. acidophilus bshA and bshB contribute to bile acid detoxification in a substrate dependent manner. Growth of BSH mutants in the presence of bile acids. To evaluate the role of BSH activity during L. acidophilus growth, single and double BSH mutants were grown in MRS media supplemented with bile acids and growth was measured by OD600 nm.
FIGS. 13A-13G: L. acidophilus bshA and bshB contribute to bile acid detoxification in a substrate and concentration dependent manner.
as §2, with “FIGS. 12-14 include representative results of experiments conducted to evaluate the role of BSH activity during L. acidophilus growth. […] The L.” for “The L.”, “acid concentrations. As shown, single and double BSH mutants (ΔbshA and ΔbshB) were grown in MRS media supplemented with bile acids.” for “acid concentrations.”
as §1, with “s.d.” for “standard deviation (s.d.)”, “to” for “to (A)”, “or” for “or (B)”

Compound | C. difficile growth (C. difficile [1]) | growth of L. acidophilus ΔbshAB (L. acidophilus ΔbshAB; 5 mM bile acid in MRS) | growth of L. acidophilus ΔbshAB (L. acidophilus ΔbshAB; 2.5 mM bile acid in MRS) | also measured
C[C@H](CCC(=O)O)[C@H]1CC[C@H]2[C@@H]3[C@H](O)C[C@@H]4C[C@H](O)CC[C@]4(C)[C@H]3CC[C@]12C [CDCA, chendeoxycholate] | complete inhibition |  |  | C. difficile spore germination (C. difficile [2]): inhibits; C. difficile vegetative cells (C. difficile [2]): kills
C[C@H](CCC(=O)NCC(=O)O)[C@H]1CC[C@H]2[C@@H]3[C@H](O)C[C@@H]4C[C@H](O)CC[C@]4(C)[C@H]3C[C@H](O)[C@]12C [GCA, glycocholate] |  | less inhibited |  | growth of L. gasseri ΔbshAB (L. gasseri ΔbshAB; 5 mM bile acid in MRS): significantly less inhibited
C[C@H](CCC(=O)NCC(=O)O)[C@H]1CC[C@H]2[C@@H]3[C@H](O)C[C@@H]4C[C@H](O)CC[C@]4(C)[C@H]3CC[C@]12C [GCDCA, glycochendeoxycholate] |  |  | significantly inhibited | growth of L. gasseri ΔbshAB (L. gasseri ΔbshAB; 2.5 mM bile acid in MRS): significantly inhibited
C[C@H](CCC(=O)NCC(=O)O)[C@H]1CC[C@H]2[C@@H]3CC[C@@H]4C[C@H](O)CC[C@]4(C)[C@H]3C[C@H](O)[C@]12C [GDCA, glycodeoxycholate] |  |  | significantly inhibited | growth of L. gasseri ΔbshAB (L. gasseri ΔbshAB; 1.25 mM bile acid in MRS): significantly inhibited
C[C@H](CCC(=O)NCCS(=O)(=O)O)[C@H]1CC[C@H]2[C@@H]3[C@H](O)C[C@@H]4C[C@H](O)CC[C@]4(C)[C@H]3CC[C@]12C [TCDCA, taurochendeoxycholate] | no inhibition of growth | less inhibited |  | effect on C. difficile (C. difficile [2]; bile acid alone): does not affect C. difficile
C[C@H](CCC(=O)NCCS(=O)(=O)O)[C@H]1CC[C@H]2[C@@H]3CC[C@@H]4C[C@H](O)CC[C@]4(C)[C@H]3C[C@H](O)[C@]12C [TDCA, taurodeoxycholate] |  | significantly inhibited |  | 
